Test results: US12642780B2, “Methods and compositions to treat and prevent viral infections and acute respiratory distress syndrome” (priority 2020, dated 2026)
Read-outs that look alike come from different tables or passages of the source.

What was measured:
[1] = tested on: NLRP3 inflammasome; test: NLRP3 inflammasome activation in human macrophages; format: cell-based; details: LPS 20 ng/ml 3 hrs, ATP 2 mM 30 min, metformin 0.5 mM 16 hrs
[2] = tested on: LPS-induced ARDS; details: for protection from LPS-induced ARDS: last dose 30 min prior to 5 mg/kg LPS
Description: Briefly, 5 mg/kg LPS or vehicle was i.p. injected and the mice were euthanized 8, 24 or 48 hrs later. […] In all cases, at the experimental endpoint the lungs were inflated with cold PBS, excised and fixed in 10% formalin for histological evaluation.
Paired antibodies (capture and detection) and standard recombinant mouse IL-1β (R&D Systems), and TNF and IL-6 (eBioscience) were used to determine mouse cytokine concentrations according to manufacturer's instructions.
Lungs were fixed in 10% formalin for 24 hrs and embedded in paraffin, sectioned and stained with hematoxylin and eosin (H&E) to evaluate gross morphology and lung damage and inflammation; and with Sirius red to determine collagen buildup. Ten to twelve H&E stained sections from each animal were scored for the degree of lung inflammation and damage by two blinded mouse lung pathology experts as described (Jupelli et al., 2013), and the scores were averaged. Briefly, the degree of lung inflammation was assigned an arbitrary score of 0 (normal=no inflammation, no airway thickening, no edema), 1 (minimal cellular infiltration, and minimal edema), 2 (mild-moderate cellular infiltration, plus mild airway thickening and mild edema), 3 (severe cellular infiltration, plus diffuse airway thickening and severe edema) in 10-12 fields per mouse.
Lung sections were subjected to incubation with antibodies specific for F4/80 (macrophage marker), myeloperoxidase (MPO, neutrophil marker), c/EBPb, NFATc2 and NFATc3. Stained areas were quantified using ImageJ software.
NLRP3 inflammasome activation in the lung was detected by immunofluorescence co-staining with F4/80 and ASC antibodies. Briefly, lung sections were hydrated and boiled at 96° C. in citrate buffer 1× for 20 min. Sections were blocked with 2% BSA/PBS1X containing 1% normal horse serum for 1 hr at room temperature. F4/80 and ASC antibodies were incubated in blocking solution overnight at 4° C. After washing, Alexa secondary antibodies were added and the sections were incubated in 2% BSA/PBS1X for 1 hr at room temperature. Sections were washed, incubated with DAPI, and mounted using FluoSave. Sections were imaged through a Leica SP5 confocal microscope. The percentage of F4/80^+ cells with ASC specks were quantified in 18-26 high magnification fields from 4-5 mice per group.

[3] = tested on: SARS-CoV-2 USA-WA1/2020 strain; test: SARS-CoV-2 infection in hACE2 mice; format: in vivo, mouse
[4] = Cmpk2ΔMye mice, 50 mg/kg metformin
[5] = therapeutic, 50 mg/kg i.p. after LPS

SMILES: CN(C)C(=N)NC(=N)N [metformin, N,N-dimethylbiguanide]
- Casp1 p20 and IL-1β secretion [1]: abrogated
- protection from LPS-induced ARDS ([2]; 10 mg/kg i.p. three consecutive days): modest protective effect
- protection from LPS-induced ARDS ([2]; 50 mg/kg i.p. three consecutive days): strong protection
- IL-1β and IL-6 in BALF ([2]; 50 mg/kg prophylactic): decreased
- TNF in BALF ([2]; 50 mg/kg prophylactic): no effect
- collagen buildup ([2]; 50 mg/kg prophylactic): abrogated
- infiltration of inflammatory cells into bronchioles, vascular bed and lung parenchyma ([2]; 50 mg/kg prophylactic): inhibited
- macrophage and neutrophil infiltration ([2]; 50 mg/kg prophylactic, F4/80 and MPO staining): strongly inhibited
- septa thickening ([2]; 50 mg/kg prophylactic, lung histology): prevented
- c/EBPβ activation and IL-6 secretion to BALF [2, 4]: did inhibit
- lung pathology or IL-1β secretion [2, 4]: did not result in noticeable improvement
- preventive efficacy of oral metformin ([2]; drinking water 400 mg/kg starting 48 hrs prior to LPS): as protective as injected metformin
- ASC speck formation in lung ([2]; prophylactic metformin): limited
- c/EBPβ and NFAT activation in lung ([2]; prophylactic metformin): limited
- IL-1β in BALF [2, 5]: decreased
- macrophage and neutrophil infiltration [2, 5]: inhibited
- infection-associated loss of body weight ([3]; day 2 post-inoculation): slowed down
- immune cell infiltration, alveolar wall thickening and c/EBPβ activation ([3]; hACE2 Tg mice, 50 mg/kg i.p. from 2 days before infection, 6 days post-infection): reduced
- macrophages with ASC specks in lungs ([3]; hACE2 Tg mice, 50 mg/kg, day 6 post-infection): almost none
